The source of these data is PubChem BioAssay AID1963875 (Molecular Pharmacology Branch, DTP, NCI, 2024).

The subject of this assay is KRAS-mutant PDC complex spheroid viability. Put plainly: Anticancer human tumor 186277-243-T-J2-PDC patient-derived colon adenocarcinoma cell line growth inhibition [KRAS2]. To be noted: for viability, T/C: stronger effect = lower value. From the text:
Multicellular complex tumor spheroid response to RAS pathway inhibitors in combination with a targeted agents in patient-derived cell lines with oncogenic KRAS variants from multiple cancer types
A high-throughput screen of multi-cell type tumor spheroids was designed to identify active combinations of targeted small molecules and KRAS pathway inhibitors. Complex spheroids include a stromal component modeled by human endothelial cells (HUVEC) and fibroblasts modeled by human mesenchymal stem cells (MSCs). The concentration ranges selected for each drug and investigational agent were based upon clinically achievable concentrations if the clinical Cmax of the agent was known.
Compounds. The drugs and investigational agents: BI-3406 (NSC825286), BAY-293 (NSC824723), batoprotafib (TNO155; NSC825523), sotorasib (AMG 510; NSC818433), MRTX1257 (NSC819558), elimusertib (BAY 1895344; NSC800525), molibresib (GSK525762; NSC774829), temuterkib (LY3214996; NSC803410), venetoclax (NSC766270), alisertib (NSC759677), olaparib (NSC753686), talazoparib (NSC767125), erdafitinib (NSC781556), ipatasertib (NSC767898), cabozantinib (NSC761068), nintedanib (NSC756659), abemaciclib (NSC768073), docetaxel (NSC628503), trametinib (NSC758246), and sapanisertib (NSC764658) were obtained from the National Cancer Institute (NCI) Developmental Therapeutics Program Chemical Repository. The FDA-approved anticancer drug set is available from the Developmental Therapeutics Program. […] The stock solutions were prepared in dimethyl sulfoxide (DMSO, Sigma-Aldrich, St. Louis, MO, cat. D2650) at 800-fold the tested concentration and stored at -70 degrees C prior to their use. All drugs and investigational agents were tested over a range starting from a high concentration at or near the clinical Cmax and decreasing in half-log increments. If the clinical Cmax for an agent had not been determined, the highest concentration tested was 10 microM.
Cell Culture. All cells were maintained in an incubator at 37 degrees C and 5% CO2 with 95% humidity. The PDC lines were cultured according to standard operating procedures established by the NCI PDMR (https://pdmr.cancer.gov/sops/default.htm). Briefly, all PDCs were thawed and cultured in Matrigel-coated flasks prepared with a working solution of 1X Ham's F-12 nutrient mix, without supplementation (Invitrogen, Waltham, MA, cat. 11765054), 100 U/mL penicillin-streptomycin (Invitrogen, cat. 15140122), and 2.5% Matrigel (Corning Inc., Corning, NY, cat. 354248) for the first three passages. All PDCs were cultured in complete DMEM/F-12 media containing advanced DMEM/F-12 (Invitrogen, cat. 12634028), 4.9% defined fetal bovine serum, heat inactivated (HyClone Laboratories Inc., Logan, UT, cat. SH30070.03HI), 389 ng/mL hydrocortisone (Sigma-Aldrich, cat. H4001), 9.7 ng/mL human EGF recombinant protein (Invitrogen, cat. PHG0313), 23.4 microg/mL adenine (Sigma-Aldrich, cat. A2786), 97.3 U/mL penicillin-streptomycin (Invitrogen, cat. 15140122), 1.9 mM L-glutamine (Invitrogen, cat. 25030081), and 9.7 microM Y-27632 dihydrochloride (Tocris Bioscience, Bristol, United Kingdom, cat. 1254). The PDCs were cultured in complete DMEM/F12 media without 9.7 microM Y-27632 dihydrochloride for at least two passages prior to the screen. The established cell line HOP-62 was cultured in RPMI 1640 medium, HEPES (Invitrogen, cat. 22400105) with 10% defined fetal bovine serum (HyClone Laboratories Inc., cat. SH30070.03) and 2 mM L-glutamine (Invitrogen, cat. 25030081). The pooled donor HUVEC were cultured in endothelial cell growth medium 2 (PromoCell, Heidelberg, Germany, cat. C-22011) and the hMSC were cultured in mesenchymal stem cell growth medium 2 (PromoCell, cat. C-28009). For all experiments, HUVEC and hMSC were used at passages </=5, while the malignant cell lines were used at passages </=15. […]

[1] abbreviates: compound alone, run of 07/19/2021.
Where [2] appears, read: compound alone, run of 07/26/2021.

Several values for one entry are separate records, joined by “and”; a condition that tells them apart may be missing. Equal values may be shown once.
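Throughout, for viability, T/C: viability read after seven days of compound exposure; 100% = DMSO vehicle-treated spheroids so lower means less viable.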

On to `C=CC(=O)N1CCN(c2nc(OCC3CCCN3C)nc3c2CCN(c2cccc4cccc(C)c24)C3)CC1CC#N` (stereo not drawn), for which the viability, T/C (compound 0.0316 µM) is 98.9% [middle of 16 runs]. Besides, the concentration for half-maximal inhibition (IC50) was 1.82 µM [middle of 4 runs] under setting [1] and 1.75 µM [middle of 5 runs] under setting [2].
Consider `CC(=O)Nc1cccc(-n2c(=O)n(C3CC3)c(=O)c3c(Nc4ccc(I)cc4F)n(C)c(=O)c(C)c32)c1`, for which the viability, T/C was 102% [middle of 5 runs] (compound 0.0001 µM); 21.2% [middle of 5 runs] (compound 0.001 µM); 9.7% [middle of 5 runs] (compound 0.00316 µM); 4.01% [middle of 5 runs] (compound 0.01 µM); 1.43% [middle of 5 runs] (compound 0.0316 µM). For the same compound, under “curve of compound”, the IC50 was 0.622 nM [middle of 5 runs].
Take `CC(=O)OC12COC1CC(O)C1(C)C(=O)C(O)C3=C(C)C(OC(=O)C(O)C(NC(=O)OC(C)(C)C)c4ccccc4)CC(O)(C(OC(=O)c4ccccc4)C21)C3(C)C` (stereo not drawn): the viability, T/C reads like this: (compound 0.01 µM) 5.72% [middle of 5 runs]; (compound 0.0316 µM) 3.66% [middle of 5 runs]; (compound 0.1 µM) 3.28% [middle of 5 runs]; (compound 0.316 µM) 3.46% [middle of 4 runs]; (compound 1 µM) 3.38% [middle of 5 runs]; (compound 3.16 µM) 3.74% [middle of 5 runs]. The IC50 (curve of compound) was under 0.01 µM.
Consider `CC(C)NCC(C(=O)N1CCN(c2ncnc3c2C(C)CC3O)CC1)c1ccc(Cl)cc1` (stereo not drawn), for which the viability, T/C is, setting by setting: (compound 0.0316 µM) 89.6% [middle of 5 runs]; (compound 0.1 µM) 89.8% [middle of 5 runs]; (compound 0.316 µM) 73% [middle of 5 runs]; (compound 1 µM) 39.9% and 40.4% (2×) and 33.2%; (compound 10 µM) 12.9% [middle of 5 runs]. Also, the IC50 (curve of compound) was 746 nM [middle of 5 runs].
For `CC(C)n1nc(-c2ccc3oc(N)nc3c2)c2c(N)ncnc21`, the viability, T/C (compound 0.000316 µM) is 95.7% [middle of 5 runs]; the viability, T/C (compound 0.001 µM) was 98.8% [middle of 5 runs]; the viability, T/C (compound 0.00316 µM) was 77.8% [middle of 5 runs]; the viability, T/C (compound 0.01 µM) is 56.7% [middle of 5 runs]; the viability, T/C (compound 0.0316 µM) was 32.1% [middle of 5 runs]; the viability, T/C (compound 0.1 µM) was 19.2% [middle of 5 runs]. Besides, the 50% inhibitory concentration (IC50) (curve of compound) is 14.1 nM [middle of 5 runs].
In the case of `CC1(C)CCC(CN2CCN(c3ccc(C(=O)NS(=O)(=O)c4ccc(NCC5CCOCC5)c([N+](=O)[O-])c4)c(Oc4cnc5[nH]ccc5c4)c3)CC2)=C(c2ccc(Cl)cc2)C1`, the viability, T/C is 97.6% [middle of 5 runs] (compound 0.0316 µM); 93.7% [middle of 5 runs] (compound 0.1 µM); 104% [middle of 5 runs] (compound 0.316 µM); 98.1% [middle of 5 runs] (compound 1 µM); 22.7% [middle of 5 runs] (compound 3.16 µM); 4.85% [middle of 5 runs] (compound 10 µM). Also, for the setting “curve of compound”, the half-maximal inhibitory concentration (IC50) was 2.07 µM [middle of 5 runs].
For `CC1COCCN1c1cc(-c2ccnn2C)c2ccnc(-c3ccn[nH]3)c2n1` (stereo not drawn), the viability, T/C by setting is: (compound 0.0316 µM) 29.2% [middle of 5 runs]; (compound 0.1 µM) 7.22% [middle of 5 runs]; (compound 0.316 µM) 4.63% [middle of 5 runs]; (compound 1 µM) 3.65% [middle of 5 runs]; (compound 3.16 µM) 4.09% [middle of 5 runs].
Regarding `CC1OCC2(CCN(c3cnc(Sc4ccnc(N)c4Cl)c(N)n3)CC2)C1N` (stereo not drawn), the viability, T/C (compound 0.0316 µM) was 107% and 92.4% and 90.5%; the viability, T/C (compound 0.1 µM) is 102% [middle of 19 runs]. Moreover, the IC50 runs as follows: (compound alone, run of 07/12/2021) over 10 µM; under setting [1], 7.4 µM and > 10 µM; under setting [2], over 10 µM; (curve of compound) over 10 µM.
`CCN1CCN(Cc2ccc(Nc3ncc(F)c(-c4cc(F)c5nc(C)n(C(C)C)c5c4)n3)nc2)CC1`: the viability, T/C (compound 0.00316 µM) was 98.8% [middle of 4 runs]; the viability, T/C (compound 0.01 µM) is 98.5% [middle of 4 runs]; the viability, T/C (compound 0.0316 µM) was 107% [middle of 4 runs]; the viability, T/C (compound 0.1 µM) is 112% (2×) and 136% and 113%; the viability, T/C (compound 1 µM) is 101% [middle of 4 runs]. The IC50 (curve of compound) is over 1 µM.
`CCNC(=O)CC1N=C(c2ccc(Cl)cc2)c2cc(OC)ccc2-n2c(C)nnc21` (stereo not drawn): the viability, T/C (compound 0.0316 µM) is 96.3% [middle of 5 runs]; the viability, T/C (compound 0.1 µM) was 101% (4×) and 92.8%. Under “curve of compound”, the IC50 was > 10 µM and 5.78 µM.
On to `CN(C)C/C=C/C(=O)Nc1cc2c(Nc3ccc(F)c(Cl)c3)ncnc2cc1O[C@H]1CCOC1`, for which the viability, T/C (compound 0.000316 µM) is 101% [middle of 5 runs]; the viability, T/C (compound 0.00316 µM) was 101% [middle of 5 runs]; the viability, T/C (compound 0.01 µM) is 108% [middle of 5 runs]; the viability, T/C (compound 0.0316 µM) is 120% (3×) and 114% and 105%; the viability, T/C (compound 0.1 µM) is 111% [middle of 5 runs]. Under “curve of compound”, the concentration for half-maximal inhibition (IC50) was over 0.1 µM.
For the compound `COc1cc(Nc2ncc3c(n2)-c2ccc(Cl)cc2C(c2c(F)cccc2OC)=NC3)ccc1C(=O)O`, the viability, T/C was 37.6% [middle of 5 runs] (compound 0.0316 µM); 34.1% [middle of 5 runs] (compound 0.1 µM); 33.4% [middle of 5 runs] (compound 0.316 µM); 37% [middle of 5 runs] (compound 1 µM); 46.8% [middle of 5 runs] (compound 3.16 µM); 50.4% [middle of 5 runs] (compound 10 µM). Further, the 50% inhibitory concentration (IC50) (curve of compound) was under 0.0316 µM.
On to `COc1cc(OC)cc(N(CCNC(C)C)c2ccc3ncc(-c4cnn(C)c4)nc3c2)c1`, for which the viability, T/C by setting is: (compound 0.0316 µM) 109% [middle of 5 runs]; (compound 0.1 µM) 106% [middle of 5 runs].
With `COc1cc2nccc(Oc3ccc(NC(=O)C4(C(=O)Nc5ccc(F)cc5)CC4)cc3)c2cc1OC`, the viability, T/C was 92.6% [middle of 5 runs] (compound 0.0316 µM), 99.7% [middle of 5 runs] (compound 0.1 µM), 104% [middle of 5 runs] (compound 0.316 µM) and 13.8% [middle of 5 runs] (compound 3.16 µM). The 50% inhibitory concentration (IC50) (curve of compound) was 2.02 µM [middle of 4 runs].
Regarding `Cn1nccc1Nc1nccc(-c2cc3c(s2)C(C)(C)N(CCN2CCOCC2)C3=O)n1`, the viability, T/C (compound 0.0316 µM) is 101% [middle of 5 runs]; the viability, T/C (compound 0.1 µM) is 90.8% [middle of 5 runs]; the viability, T/C (compound 1 µM) is 16% [middle of 5 runs]; the viability, T/C (compound 3.16 µM) is 6.29% [middle of 5 runs]; the viability, T/C (compound 10 µM) is 6.23% [middle of 5 runs]. Besides, the half-inhibitory concentration (IC50) (curve of compound) was 383 nM [middle of 5 runs].
Regarding `Cn1ncnc1[C@H]1c2n[nH]c(=O)c3cc(F)cc(c23)N[C@@H]1c1ccc(F)cc1`, the viability, T/C runs as follows: (compound 0.000316 µM) 99% [middle of 5 runs]; (compound 0.001 µM) 98% [middle of 5 runs]; (compound 0.00316 µM) 101% [middle of 5 runs]; (compound 0.01 µM) 98.1% [middle of 5 runs]; (compound 0.0316 µM) 91% [middle of 5 runs]; (compound 0.1 µM) 80.8% [middle of 5 runs]. Besides, the half-maximal inhibitory concentration (IC50) (curve of compound) was over 0.1 µM.
For the compound `O=C(c1cc(Cc2n[nH]c(=O)c3ccccc23)ccc1F)N1CCN(C(=O)C2CC2)CC1`, the viability, T/C (compound 0.0316 µM) was 99.2% [middle of 5 runs]; the viability, T/C (compound 0.1 µM) is 101% [middle of 5 runs]; the viability, T/C (compound 0.316 µM) is 99.5% [middle of 5 runs]; the viability, T/C (compound 10 µM) is 40.3% [middle of 5 runs].
